Results as given in patent US5711020A (priority 1996, dated 1998).
Several values for one entry are separate records, joined by “and”; a condition that tells them apart may be missing. Equal values may be shown once. Read-outs that look alike come from different tables or passages of the source.

How the values were obtained:
[1] = test system: purified dehalogenase
[2] = test system: purified TNT-reducing agent
[3] = not given; remark: listed apart in the source
[4] = not given; remark: listed apart in the source
[5] = test system: TNT reducing enzyme; type: biochemical
[6] = test system: nitrilase; type: biochemical

For `ClC(Br)C(Cl)Br` (stereo not drawn) [1,2-Dibromo-1,2-dichloroethane], the “Rate Constant k” value (pH 7.2) was 5.44E-03 min - 1 and 4.54E-03 min - 1.

With `BrCCBr` [1,2-Dibromoethane] the “Rate Constant k” value (pH 7.2) was 7.13E-04 min - 1 and the Half life (vechten pond sediment, pH 7.2) was 16.2 h.

With `ClC(Cl)(Cl)Cl` [Carbontetrachloride] the Half life (breukelveen sediment, pH 7.6) was 10.0 h and the “Rate Constant k” value (pH 7.6) was 1.16E-03 min - 1.

Work on `ClC(Cl)(Cl)C(Cl)(Cl)Cl` [HCA, hexachloroethane] yielded a Half-life ([1]; 30 µM) of 3.33 h, a Half life (breukelveen sediment, pH 7.6) of 0.5 h and a Half life (dommel sediment, 0.0732 µM, pH 7.5) of 1.5 h. For the same compound, the Half life (loosdrechtse plassen sediment, 0.0732 µM, pH 7.7) was 9.5 h, the “Rate Constant k” value (pH 7.2) was 2.33E-03 min - 1 and the “Rate Constant k” value (pH 7.5) was 7.62E-03 min - 1. The “Rate Constant k” value (pH 7.6) was 2.47E-02 min - 1, the “Rate Constant k” value (pH 7.7) was 1.22E-03 min - 1 and the Half life (vechten pond sediment, pH 7.2) was 5.0 h.

In the case of `Ic1ccccc1` [Iodobenzene], the “Rate Constant k” value (pH 7.2) is reported as 2.55E-05 min - 1 and the Half life (vechten pond sediment, pH 7.2) is reported as 453.0 h.

Work on `BrC(Br)=C(Br)Br` [PBE, tetrabromoethene] yielded a Half-life ([1]; 30 µM) of 18.33 h.

In the case of `ClC(Cl)=C(Cl)Cl` [PCE, tetrachloroethene], the Half-life ([1]; 60 µM) is reported as 3.33 h, the Half-life ([1]; 100 µM) is reported as 10 h and the “Rate Constant k” value (pH 7.2) is reported as 4.05E-05 min - 1. It also gave a Half life (vechten pond sediment, pH 7.2) of 285.5 h.

In the case of `ClC=C(Cl)Cl` [TCE, trichloroethene], the Half-life ([1]; 60 µM) is reported as 3.33 h.

For `IC(I)=C(I)I` [Tetraiodoethene], the “Rate Constant k” value (pH 7.2) was 9.22E-02 min - 1 and the Half life (vechten pond sediment, pH 7.2) was 0.1 h.

In the case of `O=[N+]([O-])c1ccccc1` [nitrobenzene], the Half-life [2] is reported as 28 h, the “kcorr, calculated maximum rate assuming a 10% analytical method error” value ([3]; pH 2.5) is reported as 0.25 ± 0.025 10^4 m^-1 and the “kcorr, calculated maximum rate assuming a 10% analytical method error” value ([3]; pH 3.85) is reported as 0.12 ± 0.012 10^4 m^-1. For the same compound, the kcorr ([3]; pH 5.3) was 4.6 ± 0.24 10^4 m^-1, the “kobs, observed first-order disappearance rate constant and standard deviation” value ([3]; pH 5.3) was 4.0 ± 0.21 10^-4 m^-1 and the kcorr ([3]; pH 7) was 4.2 ± 0.20 10^4 m^-1. The “kobs, observed first-order disappearance rate constant and standard deviation” value ([3]; pH 7) was 3.8 ± 0.18 10^-4 m^-1, the kcorr ([3]; pH 7.75) was 8.5 ± 0.77 10^4 m^-1 and the “kobs, observed first-order disappearance rate constant and standard deviation” value ([3]; pH 7.75) was 7.7 ± 0.70 10^-4 m^-1. The kcorr ([3]; pH 9.15) was 9.3 ± 0.62 10^4 m^-1, the “kobs, observed first-order disappearance rate constant and standard deviation” value ([3]; pH 9.15) was 8.6 ± 0.57 10^-4 m^-1 and the kcorr ([3]; pH 10.55) was 7.8 ± 1.2 10^4 m^-1. For the same compound, the “kobs, observed first-order disappearance rate constant and standard deviation” value ([3]; pH 10.55) was 6.6 ± 1.0 10^-4 m^-1, the t1/2 ([4]; bar-h sediment) was 0.35 h and the t1/2 ([4]; beaver dam sediment) was 2.37 h. For the same compound, the t1/2 ([4]; hickory hill sediment) was 2.37 h and the t1/2 ([4]; memorial park sediment) was 2 h.

In the case of chymotrypsin, the “effect on TNT-reducing activity” value [5] is reported as “no inhibition” and the “effect on activity of the nitrilase” value [6] is reported as “inhibited”.

In the case of trypsin, the “effect on TNT-reducing activity” value [5] is reported as “no inhibition” and the “effect on activity of the nitrilase” value [6] is reported as “inhibited”.
